Reference: patent US4812312A, “Liposome-incorporated nystatin” (Board of Regents of the University of Texas System, priority 1987, dated 1989)
Where two headings read alike, the source gives them in different places.

Legend:
HTLV-III/LAV = details: cell line H9; cited from earlier work
human RBCs = assay: Lysis of human red blood cells (hemoglobin release at 550 nm); format: cell-based; details: 37 °C, 45 min
Method: Lysis of human red blood cells (RBCs) was quantitated by measuring the release of hemoglobin in the supernatants at 550 nm, as described previously (Mehta et al., Biochem. Biophys, Acta., Vol. 770, pp. 230-234 (1984)). Various doses of L-Nys were incubated with fresh washed human RBCs at 37° C for 45 min. Free-Nys, dissolved in dimethyl formamide (DMFA), was added to the assay at a 3% final solvent concentration. Appropriate solvent controls, empty liposomes, and empty liposomes plus free-drug were also included in each experiment. Release of hemoglobin by hypotonic lysis of the same number of human RBCs by water was taken as 100% positive control, while cells treated with PBS were taken as negative controls.

Candida albicans [1] = assay: Single-dose therapy with free Nys or L-Nys of disseminated C. albicans infection in mice; format: in vivo, Hale-Stoner mice; details: 4 mg/kg
Method: (§1) Hale-Stoner mice, six to eight weeks old (body weight, 20-25 g) were purchased from The University of Texas Science Park (Bastrop, TX). The mice (eight per group) were injected with 0.2 ml of C. albicans cell suspension containing 7×10^5 colony-forming units (cfu) via the tail vein. This concentration of cells was consistent in producing a disseminated infection after 48 hr, affecting liver, spleen, lungs, and kidneys primarily. Infected mice were treated with increasing doses of free-Nys, ranging from 1 mg to 4 mg/kg body weight (FIG. 5).
Mice were infected with C. albicans as described in Example 9. Groups of eight mice each were injected (iv) with various doses of free-Nys, L-Nys, empty liposomes or 5% DMSO two days after the injection of C. albicans. The survival of the animals in each group was noted and compared with that of the untreated control group.

Rhizopus = assay: In vitro antifungal spectrum, MIC (Table 6); format: cell-based
Method: (§2) Organism, culture, and assay of antifungal activity in vitro. All strains of yeast were grown overnight at 37° C. on Sabouraud dextrose agar (SDA) plates. All molds were grown at 30° C. on SDA for 3 to 10 days prior to collection of spores. The inoculum was then processed for susceptibility testing as described earlier (Hopfer et al., Antimicrob. Agents Chemotherap., Vol. 25, pp 387-389 (1984)). A twofold serial dilution method (Shadomy et al., In E. H. Lennette, et al., (eds.) Manual of Clinical Microbiology, 3rd ed. American Society for Microbiology, Washington, D.C. , pp. 647-653 (1980)) adapted to microtiter plates was used to determine the minimal inhibitory concentration (MIC) of the drugs. The MIC of L-Nys were compared with that of free-Nys. Empty liposomes and 5% dimethylsulfoxide (DMSO) were used as controls.
(§3) The L-Nys was prepared and tested generally as described above in this and earlier examples, except for the various new fungal varieties. […] (Hopfer et al., […], Vol. 25, No. 3, pp. 387-389 (1984)).

Candida albicans [2] = assay: In vitro antifungal spectrum, MIC (Table 6); format: cell-based
Method: as §2, §3

Curvularia = assay: In vitro antifungal spectrum, MIC (Table 6); format: cell-based
Method: as §2, §3

Torulopsis globrata = assay: In vitro antifungal spectrum, MIC (Table 6); format: cell-based
Method: as §2, §3

Alternaria = assay: In vitro antifungal spectrum, MIC (Table 6); format: cell-based
Method: as §2, §3

Aspergillus flavus = assay: In vitro antifungal spectrum, MIC (Table 6); format: cell-based
Method: as §2, §3

Aspergillus fumigatus = assay: In vitro antifungal spectrum, MIC (Table 6); format: cell-based
Method: as §2, §3

Candida paratropicalis = assay: In vitro antifungal spectrum, MIC (Table 6); format: cell-based
Method: as §2, §3

[3] = tested on: Aspergillus not fumigatus; assay: In vitro antifungal spectrum, MIC (Table 6); format: cell-based
Method: as §2, §3

Cryptococcus neoformans = assay: In vitro antifungal spectrum, MIC (Table 6); format: cell-based
Method: as §2, §3

Fusarium = assay: In vitro antifungal spectrum, MIC (Table 6); format: cell-based
Method: as §2, §3

Aspergillus niger = assay: In vitro antifungal spectrum, MIC (Table 6); format: cell-based
Method: as §2, §3

Candida tropicalis = assay: In vitro antifungal spectrum, MIC (Table 6); format: cell-based
Method: as §2, §3

Mucor = assay: In vitro antifungal spectrum, MIC (Table 6); format: cell-based
Method: as §2, §3

Allescheria = assay: In vitro antifungal spectrum, MIC (Table 6); format: cell-based
Method: as §2, §3

[4] = orally and topically; cited from earlier work
[5] = tested on: Candida albicans strain 336; assay: In vitro MIC, twofold serial dilution, C. albicans strain 336 (Table 5); format: cell-based
Method: as §2
The antifungal activity was maintained after Nys was entrapped in liposomes with or without sterols.

[6] = cited from earlier work
[7] = Solubility of nystatin / polyenes; format: physicochemical
Candida albicans [8] = assay: Multiple-dose therapy with Nys or L-Nys of disseminated C. albicans infection in mice; format: in vivo, Hale-Stoner mice
Method: as §1
Two days after the injection of C. albicans (iv), (as described in Examples 9 and 10), the mice were treated with different doses of free-Nys, L-Nys, empty liposomes or 5% DMSO control for five consecutive days. The multiple-dose groups were also compared with appropriate cumulative single doses (see Example 10). The animals were then observed for survival or any toxicity pertaining to the treatment with five daily doses.
These experiments were terminated at 60 days, and blood and tissue samples were collected from the surviving animals after sacrifice.
Survival curves were calculated by the method of Kaplan and Meier (J. Amer. Stat. Assoc., Vol. 53, pp 457-462 […]) and tests for differences in survival distributions were based on a generalized Wilcoxon test (Gehan., Biometrika, Vol. 52, pp 203-223 (1965)). […]

mice = assay: In vivo toxicology in Hale-Stoner mice
Method: Groups of eight Hale-Stoner mice (6-8 weeks old, body wt=20-25 g; Univ. of TX Science Park, Bastrop, TX) each were injected with various doses of free-Nys (in 5% DMSO diluted with saline), L-Nys, empty liposomes or 5% DMSO as control. […] After 45 days, the surviving animals were sacrificed and blood and tissue samples were obtained. Blood biochemistry examination included blood urea nitrogen, alkaline phosphatase, and lactic dehydrogenase (LDH). The organs (liver, spleen, lungs and kidneys) were obtained and preserved in 10% formalin. Tissue slices were processed for hematoxylin-eosin and Gomori methenamine silver stains.

Candida albicans [9] = assay: Single-dose therapy with free Nys of disseminated C. albicans infection in mice; format: in vivo, Hale-Stoner mice; details: single iv dose, 1 mg to 4 mg/kg
Method: as §1

## COC(=O)[C@H]1[C@@H]2C[C@@H](O[C@@H]3O[C@H](C)[C@@H](O)[C@H](N)[C@@H]3O)/C=C/C=C/C=C/C=C/C=C/C=C/C=C/[C@H](C)[C@@H](O)[C@@H](C)[C@H](C)OC(=O)C[C@H](O)C[C@H](O)CC[C@@H](O)[C@H](O)C[C@H](O)C[C@](O)(C[C@@H]1O)O2 [amphotericin B methyl ester ascorbate]
HTLV-III/LAV
  replication of HTLV-III/LAV in H9 cells: inhibited

## C[C@@H]1[C@H](O)[C@@H](C)/C=C/C=C/C=C/C=C/C=C/C=C/C=C/[C@H](O[C@@H]2O[C@H](C)[C@@H](O)[C@H](N)[C@@H]2O)C[C@@H]2O[C@](O)(C[C@@H](O)C[C@@H](O)[C@H](O)CC[C@@H](O)C[C@@H](O)CC(=O)O[C@H]1C)C[C@H](O)[C@H]2C(=O)O [amphotericin B]
HTLV-III/LAV
  replication of HTLV-III/LAV in H9 cells: inhibited

## C[C@@H]1[C@H](O)[C@@H](C)/C=C/C=C/CC/C=C/C=C/C=C/C=C/C(O[C@H]2O[C@H](C)[C@@H](O)[C@H](N)[C@@H]2O)CC2O[C@](O)(CC(O)C(O)CCC(O)CC(O)CC(O)CC(=O)O[C@H]1C)CC(O)C2C(=O)O (some centres unmarked) [free-Nys, nystatin]
Human RBCs; 120 ug/ml
  lysis of human RBCs: 100%
Human RBCs
  concentration range with linear increase in lysis of human RBCs: 60 to 120 µg/mL
Candida albicans [1]
  therapeutic effect in vivo: no therapeutic effect in vivo
Rhizopus
  Minimal Inhibitory Concentration: 4 µg/mL
Candida albicans [2]; C. albicans #1
  Minimal Inhibitory Concentration: 2 µg/mL
Candida albicans [2]; C. albicans #2
  Minimal Inhibitory Concentration: 2 µg/mL
Candida albicans [2]; C. albicans #3
  Minimal Inhibitory Concentration: 4 µg/mL
Candida albicans [2]; C. albicans #4
  Minimal Inhibitory Concentration: 4 µg/mL
Candida albicans [2]; C. albicans #5
  Minimal Inhibitory Concentration: 8 µg/mL
Candida albicans [2]; C. albicans #6
  Minimal Inhibitory Concentration: 4 µg/mL
Candida albicans [2]; C. albicans #7
  Minimal Inhibitory Concentration: 8 µg/mL
Candida albicans [2]; C. albicans #8
  Minimal Inhibitory Concentration: 8 µg/mL
Candida albicans [2]; C. albicans #9
  Minimal Inhibitory Concentration: 4 µg/mL
Candida albicans [2]; C. albicans #10
  Minimal Inhibitory Concentration: 4 µg/mL
Curvularia
  Minimal Inhibitory Concentration: 2 µg/mL
Torulopsis globrata; Torulopsis globrata #1
  Minimal Inhibitory Concentration: 4 µg/mL
Torulopsis globrata; Torulopsis globrata #2
  Minimal Inhibitory Concentration: 2 µg/mL
Torulopsis globrata; Torulopsis globrata #3
  Minimal Inhibitory Concentration: 4 µg/mL
Torulopsis globrata; Torulopsis globrata #4
  Minimal Inhibitory Concentration: 4 µg/mL
Alternaria
  Minimal Inhibitory Concentration: 2 µg/mL
Aspergillus flavus
  Minimal Inhibitory Concentration: 1 µg/mL
Aspergillus fumigatus
  Minimal Inhibitory Concentration: 8 µg/mL
Candida paratropicalis; C. paratropicalis #1
  Minimal Inhibitory Concentration: 2 µg/mL
Candida paratropicalis; C. paratropicalis #2
  Minimal Inhibitory Concentration: 2 µg/mL
Candida paratropicalis; C. paratropicalis #3
  Minimal Inhibitory Concentration: 4 µg/mL
Candida paratropicalis; C. paratropicalis #4
  Minimal Inhibitory Concentration: 4 µg/mL
[3]; Aspergillus not fumigatus #1
  Minimal Inhibitory Concentration: 4 µg/mL
[3]; Aspergillus not fumigatus #2
  Minimal Inhibitory Concentration: 16 µg/mL
Cryptococcus neoformans; Cryptococcus neoformans #1
  Minimal Inhibitory Concentration: 4 µg/mL
Cryptococcus neoformans; Cryptococcus neoformans #2
  Minimal Inhibitory Concentration: 4 µg/mL
Fusarium
  Minimal Inhibitory Concentration: 62.5 µg/mL
Aspergillus niger
  Minimal Inhibitory Concentration: 4 µg/mL
Candida tropicalis; C. tropicalis #1
  Minimal Inhibitory Concentration: 16 µg/mL
Candida tropicalis; C. tropicalis #2
  Minimal Inhibitory Concentration: 8 µg/mL
Candida tropicalis; C. tropicalis #3
  Minimal Inhibitory Concentration: 4 µg/mL
Candida tropicalis; C. tropicalis #4
  Minimal Inhibitory Concentration: 4 µg/mL
Mucor
  Minimal Inhibitory Concentration: 2 µg/mL
Allescheria
  Minimal Inhibitory Concentration: 16 µg/mL
[4]
  tolerability: Tolerated well both orally and topically
[5]
  Minimal Inhibitory Concentration: 1.0 µg/mL
[6]; listed as Nys
  solubility in water: substantially water-insoluble
[6]; listed as Nystatin
  solubility in water: aqueous insolubility
[7]; N,N-dimethylformamide
  soluble in DMFA: 15 mg/mL
[7]; dimethyl sulfoxide
  soluble in DMSO: 40 mg/mL
[7]; methanol
  soluble in methanol: 1 mg/mL
Candida albicans [8]; single or multiple doses
  survival time: 10 days
Candida albicans [8]; single or multiple doses (MTD, five consecutive days)
  survival of infected mice: died as rapidly as the untreated controls
mice; 4.4 mg/kg, mice, iv
  mortality: all the animals died immediately
mice; intravenous, summary
  toxicity and efficacy when administered intravenously: toxic and noneffective when administered intravenously
mice; mice, iv, per body weight
  maximal tolerated dose (MTD): 4 mg/kg
Candida albicans [9]
  survival of infected mice versus untreated control: None of the doses tested improved the survival of infected mice
